Measurements taken from patent US5087624A, “Chromic picolinate treatment” (Nutrition 21, priority 1990, dated 1992).
Several values for one entry are separate records, joined by “and”; a condition that tells them apart may be missing. Equal entries are not always repeated. Entries after “also recorded” stand apart in the source; their conditions may differ.

Key:
[1] = supplemental trivalent chromium; cited from earlier work
insulin receptors = test: Binding to insulin receptors
[2] = Absorption of orally given Cr-51 labelled chromium: radioactivity in liver and kidney; type: in vivo, male Sprague-Dawley rats; conditions: relative to chromic chloride, from Table 1
Text: The solution was cooled to room temperature before use.

[3] = Anabolic effect in male weight-training students (EXAMPLE 5); type: in vivo, human
Procedure: This study was performed to evaluate the anabolic effect of chromic tripicolinate in male subjects.
At the start of the study, 10 male university students enrolled in weight training classes, were given, at random, a 40-day supply of capsules that contained either placebo (5 mg of calcium phosphate) or chromic tripicolinate (1.6 mg chromic tripicolinate admixed with 5 mg of […], which provided 200 ug of chromium). The identity of the capsules was known only to an individual who was not in any way involved in the study. During the 40-day period, each of the volunteers followed a prescribed weight lifting protocol for a total of 3 hours per week. Measurements taken at the beginning and again at the end of the study included various skin-fold thicknesses, bicep and calf circumferences, and body weight. Percent body fat was derived from the sum of the triceps, subscapular and chest skinfolds. Lean body mass was derived from anthropometrically-determined percent body fat: weight -(weight ×percent body fat).

insulin = test: Binding to insulin
[4] = Double-blind cross-over study of serum lipids (EXAMPLE 3); type: in vivo, human
Procedure: The placebo contained only 5 mg calcium phosphate. […] Compliance by subjects was monitored by capsule count. The foregoing study protocol is illustrated in FIG. 1.
Student's t test and p values were determined with the program WORMSTAT^TM (available from Small Business Computers, New England, U.S.A.).

[5] = Cross-over study in subjects with adult onset diabetes mellitus (EXAMPLE 4); type: in vivo, human
Text: Normal values are 5.5% to 7.5%.

rats = test: Oral toxicity experiment; type: in vivo, rat
Procedure: In a toxicity experiment, rats weighing a mean of 223.4 g were given an oral suspension of 100 mg, 300 mg and 500 mg chromic tripicolinate in water. […] The tests were stopped at 500 mg because it was impossible to obtain a workable suspension beyond this level.

[6] = test system: Glucose Tolerance Factor activity; test: Glucose Tolerance Factor activity
[7] = start of 42-day treatment (baseline), mean ± SD of 28 subjects

## [Cl][Cr]([Cl])[Cl] [chromic chloride]
[1]
  risk factors associated with maturity-onset diabetes and cardiovascular diseases: associated with improvements of risk factors

## chromic tripicolinate
Insulin receptors
  binding to insulin receptors: binds to insulin and insulin receptors
[2]
  rate of absorption greater than that of chromic chloride: about 4 times
[3]; 40 days, P=0.0056
  bicep circumference increase: 1.4±0.45 cm
[3]; 40 days, P=0.017
  calculated lean body mass increase: 1.6 kg
[3]; Student's t test, P=0.0198
  increase in lean body mass compared with placebo group: significantly greater
insulin
  binding to insulin: binds to insulin
[4]; 28 subjects, 42 days
  Apolipoprotein B reduction: 16%
  LDL-cholesterol decrease: 10%
  Total cholesterol decrease: 7%
[4]; 28 subjects, 42 days, p<0.001
  LDL-cholesterol change: significant (p<0.001) reductions
  Total cholesterol change: significant (p<0.001) reductions
[4]; 28 subjects, p=0.001
  Apolipoprotein B change: decreased significantly
[4]; 28 subjects, p=0.003
  Apolipoprotein A1 change: significantly elevated
[4]; 200 micrograms Cr daily
  fine rash about forearms: one subject on chromium supplementation
  mouth ulcers: the other on chromium supplement
[4]; 42 days
  blood pressure change: No significant changes
  heart rate change: No significant changes
  serum triglycerides change: No significant changes
  temperature change: No significant changes
  weight change: No significant changes
[4]; 42 days, 28 subjects, p = .001
  Apo B, Chng.: -25 mg/dL
[4]; 42 days, 28 subjects, p = .003
  Apo A, Chng.: +16 mg/dl
[4]; end of 42-day treatment, mean ± SD of 28 subjects
  Apo B, Final: 130 mg/dL
[4]; final 42 days, placebo-first group, p=0.003
  LDL-cholesterol change: decreased significantly
[4]; final 42 days, placebo-first group, p=0.009
  Total cholesterol change: decreased significantly
[4]; first 6-week period, chromic tripicolinate-first group, p=0.003
  Apolipoprotein B change: significantly decreased
[4]; first 6-week period, chromic tripicolinate-first group, p=0.007
  Total cholesterol change: significantly decreased
[4]; first 6-week period, chromic tripicolinate-first group, p=0.015
  LDL-cholesterol change: significantly decreased
[4]; first 6-week period, chromic tripicolinate-first group, p=0.047
  Apolipoprotein A1 change: significantly elevated
[4]; in vivo
  other abnormalities: No other abnormalities were noted
[4]; of final 28 subjects
  subjects with decreased LDL-cholesterol: 20
  subjects with lower total cholesterol: 22
  subjects with total cholesterol elevated less than 0.1 mmole/1 (5 mg/dl): 4
  subjects with unchanged LDL-cholesterol: 3
  subjects with unchanged total cholesterol: 2
[4]; p>0.05
  HDL-cholesterol change: increased slightly but not significantly
[4]; placebo-first group, after supplementation, p=0.072
  Apolipoprotein B change: decreased, but not significantly
[4]; placebo-first group, supplementation period, p=0.007
  Apolipoprotein A1 change: increased significantly
[4]; [7]
  Apo A, Init: 147 ± 28 mg/dL
  Apo B, Init: 155 ± 50 mg/dL and 155 mg/dL
[4]; summary
  Apolipoprotein A1 change, summary: elevated; also recorded: significant elevation
  Apolipoprotein B change, summary: decreased; also recorded: significant reduction
[4]; summary of Examples 3 and 4
  LDL-cholesterol change, summary: decreased
  Total cholesterol change, summary: decreased
[5]; P was not <0.05
  HDL trend: trends were favorable
  cholesterol trend: trends were favorable
[5]; diabetic subjects
  LDL decrease: 8%
  blood pressure change: no significant changes
  fasting glucose change: significant decreases
  glycosylated hemoglobin change: significant decreases
  heart rate change: no significant changes
  temperature change: no significant changes
  weight change: no significant changes
[5]; treatment versus placebo groups
  Hemoglobin A1 C decrease: 12%
rats; 70 Kg human, extrapolated from rat
  dose to be ingested before any effects would be observed: > 156 grams
rats; oral suspension 100 mg, 300 mg and 500 mg in water
  deaths: No deaths occurred
rats; rats, oral
  oral lethal dose: > 2200 mg/kg
[6]
  Glucose Tolerance Factor activity: has Glucose Tolerance Factor activity
